“Also recorded” adds a separate entry of the source.

In assay [1] the target is T1, glycoprotein VI (GPVI) receptor (Homo sapiens, UniProt Q9HCN6).
T1 sequence (Q9HCN6 21-339): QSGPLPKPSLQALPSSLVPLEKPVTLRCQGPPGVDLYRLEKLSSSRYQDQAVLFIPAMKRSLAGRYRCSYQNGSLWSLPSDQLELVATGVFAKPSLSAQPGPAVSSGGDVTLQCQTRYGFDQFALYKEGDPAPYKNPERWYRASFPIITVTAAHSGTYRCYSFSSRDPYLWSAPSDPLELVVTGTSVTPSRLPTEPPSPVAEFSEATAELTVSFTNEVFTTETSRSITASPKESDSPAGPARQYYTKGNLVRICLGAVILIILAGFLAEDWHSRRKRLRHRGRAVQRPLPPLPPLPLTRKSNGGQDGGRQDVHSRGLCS
T1 sequence (P30273 19-86 partner): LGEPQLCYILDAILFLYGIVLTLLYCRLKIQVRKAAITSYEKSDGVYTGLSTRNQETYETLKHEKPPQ
Particulars: Smethurst et al.; cited from earlier work.

In another assay the test system is platelets. Briefly: PPAnalysis flow cytometry assay of platelet sensitivity (p-selectin exposure) to CRP-XL in patients with ischaemic heart disease. The assay is classed as cell-based, human. To be noted: for sensitivity to CRP-XL of patients receiving aspirin compared with aspirin-free patients: patients with ischaemic heart disease, student's t-test. How it is done: The flow cytometry assay measured fluorescein isothiocyanate-conjugated anti-fibrinogen antibody and PE-Cy5-conjugated anti-P-selectin antibody binding following stimulation with ADP ([…]), collagen-related peptide (CRP; […]), epinephrine ([…]), thrombin receptor activator peptide 6 (TRAP-6; […]), and U46619 ([…]) using an Accuri C6 (B D, Winnersh, UK) for cohort 1 and a Beckman-Coulter EPICS Profile XL for cohort 2, as described in supplemental Section 2 of Dunster 2021 (Dunster et al. Multiparameter phenotyping of platelet reactivity for stratification of human cohorts, Blood Adv (2021) 5(20): 4017-4030).
A Platelet Phenomic Analysis (PPAnalysis) assay was carried out described in Dunster 2021. PPAnalysis comprises a flow cytometry-based assay and bespoke software that was developed to make data analysis simple, rapid, and reproducible. The assay simultaneously measures 2 aspects of platelet activation, fibrinogen binding (a marker of αllßb3 activation) and the exposure of P-selectin on the platelet surface (a marker of a-granule secretion). The supplementary information accompanying Dunster 2021 provides step-by-step instructions for setting up and carrying out the PPAnalysis assay and data analysis.
A general note: In flow cytometry, cells or beads pass a laser one at a time.

For a further assay, the system named is platelets in whole blood. Briefly: In vitro thrombus formation on type I collagen, whole blood perfused at arterial shear rate. It counts as cell-based, human. To be noted: patients with ischaemic heart disease, 6 minutes, 1000 s^-1, student's t-test.

Protocol for platelets in whole blood: Thrombus formation on immobilized type I collagen was performed using the VenaFlux Platform and Vena 8Fluor+Biochips (Cellix). Channels were coated overnight at 4° C. with collagen, then blocked with 1% BSA/PBS for 1 h and replaced with PBS. Blood was collected into sodium citrate (4% w/v). Platelets in whole blood were incubated with 10 mM DiOC6 (Thermo Fisher Scientific) for 10 min. Perfusion was performed at 37° C. with an arterial shear rate of 1000 s^−1 for at least 520 seconds. Thrombus formation was visualised using a 20× magnification lens on a Nikon A1-R confocal microscope. Images were brightness corrected and converted to a binary mask with software provided auto-thresholds. Binary Mask Particles were then analysed to determine thrombus count and size.

Take (GPC-(GPO)10-GPCG-amide)3 [CRP-XL]: the “platelet agonist potency compared with non-cross-linked CRP” value in assay [1] is “more potent platelet agonist”.
Take `CC(=O)Oc1ccccc1C(=O)O` [aspirin]: in the assay on platelets (patients with ischaemic heart disease receiving ASA, mean ± spread, ASA free patients 7.4±0.49), the “sensitivity to CRP-XL of patients receiving ASA” value is given as 7.2±0.37 log g/mL. In addition, the “sensitivity to CRP-XL of patients receiving aspirin compared with aspirin-free patients” value is reported as “lower sensitivity to CRP-XL” with platelets and “significantly lower” in the assay with platelets (listed as ASA). In the assay on platelets in whole blood, the “in vitro thrombus volume in patients with versus without aspirin” value is “not reduced; also recorded: not significantly different”.

The values above are taken from patent publication US20260276652A1, “METHODS FOR ASSESSING PLATELET FUNCTION” (UNIVERSITY OF READING, priority 2023, published 2026).
